The results in this text go back to patent publication US5164381A, “Pharmacologically active 1,5-diaryl-3-substituted pyrazoles and method for synthesizing the same” (Ortho Pharmaceutical Corporation, priority 1991, dated 1992).

In general, ED50 refers to the dose at which the effect has come halfway, by size or by number of responders.

For the first assay, the system named is Lewis strain laboratory rats. Kind of assay: In vivo alleviation of inflammation: polyarthritis (adjuvant, Mycobacterium butyricum) in rats, inhibition of paw volume increase. To be noted: Rattus norvegicus, po, rat; read-out: ED50 (effective dose to obtain a 50% inhibition of inflammation). How it is done:
Polyarthritis was induced in Lewis strain laboratory rats (weight=about 200 grams) by injection of a suspension of Mycobacterium butyricum in mineral oil into the subplantar tissue of the mammal's hind paws. On day 10 after the injection, the rats were assigned to groups, and paw volumes and body weights were recorded. Paw volumes of the contralateral, uninjected hind paw were determined by mercury plethylsmography. Per oral (p.o.) dosing began and continued for five consecutive days thereafter. On day 14 after the initial injection, approximately four hours after the final dose was administered, paw volumes and body weights were recorded and quantitated.
Anti-inflammatory activity of the substituted pyrazole compounds is expressed as the percent inhibition of paw volume increase.
With `COc1ccc(-n2nc(CCC(=O)N(C)OC(=O)CN(C)C)cc2-c2ccc(Cl)cc2)cc1` [Compound 134, 3-[5-(4-Chlorophenyl)-1-(4-methoxyphenyl)-3-pyrazolyl]-N',N'-dimethylglycinyloxy-N-methylpropanamide], the ED50 turned out to be 12.5 mg/kg.
The same measure, in the same setting: the same measure for `COc1ccc(-n2nc(CCC(=O)N(C)OC(=O)CCl)cc2-c2ccc(Cl)cc2)cc1` [Compound 139, 3-[5-(4-Chlorophenyl)-1-(4-methoxyphenyl)-3-pyrazolyl]N-chloroacetyloxy-N-methylpropanamide]: 6 mg/kg; for `COc1ccc(-c2cc(CCC(=O)N(C)O)nn2-c2ccc(Cl)cc2)cc1` [Compound 112]: 16.3 mg/kg.

The assay is the same for the next values; noted with them: p.o., rat; monohydrate.
As to `COc1ccc(-n2nc(CCC(=O)O)cc2-c2ccc(Cl)cc2)cc1` [Compound 13, Sodium 3-[5-(4-chlorophenyl)-1-(4-methoxyphenyl)-3-pyrazoyl] propanoate monohydrate], the “ED50 (effective dose to obtain a 50% inhibition of inflammation)” value is listed as 1.8 mpk.

The assay is the same for the next values; noted with them: po, 336 h; 10 mpk p.o., rat; read-out: % INH. p.o. (percentage inhibition of pad swelling).
On to `CCC(CCc1cc(-c2ccc(Cl)cc2)n(-c2ccc(OC)cc2)n1)=NNc1nccs1` [Compound 175], for which the inhibition in vivo at 10 mg/kg worked out at 16%.
The same measure, in the same setting: the same measure for `COc1ccc(-n2nc(CCCN(O)C(=O)c3ccccc3)cc2-c2ccc(Cl)cc2)cc1` [Compound 155]: 45%; for `CCCCCCCC(=O)N(O)CCCc1cc(-c2ccc(Cl)cc2)n(-c2ccc(OC)cc2)n1` [Compound 154]: 11%.
Still for that read-out and setting: the same measure for `CCCCCCCCNC(=O)CCc1cc(-c2ccc(Cl)cc2)n(-c2ccc(OC)cc2)n1` [Compound 186]: 37%; for `COc1ccc(-n2nc(CCC(O)C(C)(C)C)cc2-c2ccc(Cl)cc2)cc1` (stereo not shown) [Compound 179]: 36%.
The same measure, in the same setting: the same measure for `COc1ccc(-c2cc(CCC(=O)N(C)O)nn2-c2ccc(OC)cc2)cc1` [Compound 113]: 34%; for `COc1ccc(-n2nc(CCCN(O)C(C)=O)cc2-c2ccc(Cl)cc2)cc1` [Compound 152, N-[3-[5-(4-Chlorophenyl)-1-(4-methoxyphenyl)-3-pyrazolyl]propyl]-N-hydroxy-acetamide]: 40%.
In the case of `COc1ccc(-n2nc(CCC(=O)N(C)O)cc2-c2cccc(C)c2)cc1` [Compound 115], the inhibition in vivo at 10 mg/kg turned out to be 35%.
Still for that read-out and setting: for `CCOC(=O)C(=O)N(O)CCCc1cc(-c2ccc(Cl)cc2)n(-c2ccc(OC)cc2)n1` [Compound 157, Ethyl N-[3-[5-(4-chlorophenyl)-1-(4-methoxyphenyl)-3-pyrazolyl]-propyl]-hydroxyoxamate] the value was 51%; for `CCOC(=O)C(C)N(O)C(=O)CCc1cc(-c2ccc(Cl)cc2)n(-c2ccc(OC)cc2)n1` (stereo not shown) [Compound 144], 55%.

Still in this assay, the particulars now being: po, 336 h; 15 mpk p.o., rat; read-out: % INH. p.o. (percentage inhibition of pad swelling).
`COc1ccccc1-n1nc(CCC(=O)N(C)O)cc1-c1ccc(Cl)cc1` [Compound 104]: the inhibition in vivo at 15 mg/kg came out at 39%.
Still for that read-out and setting: the same measure for `CCOC(=O)CNC(=O)CCc1cc(-c2ccc(Cl)cc2)n(-c2ccc(OC)cc2)n1` [Compound 87]: 22%; for `COc1ccc(-n2nc(CCC(=NNc3nccs3)c3ccccc3)cc2-c2ccc(Cl)cc2)cc1` [Compound 176]: 6%; for `CCC(O)CCc1cc(-c2ccc(Cl)cc2)n(-c2ccc(OC)cc2)n1` (stereo not shown) [Compound 177]: 16%.
Same read-out and setting: the same measure for `COc1ccc(-n2nc(CCC=NNc3nccs3)cc2-c2ccc(Cl)cc2)cc1` [Compound 174]: 37%.
Same read-out and setting: the same measure for `COc1ccc(-n2nc(CCC(=N)N(C)O)cc2-c2ccc(Cl)cc2)cc1` [Compound 185, N-Hydroxy-N-methyl-2-[5-(4-chlorophenyl)-1-(4-methoxyphenyl)-3-pyrazolyl]ethylcarboximidamide Monohydrate]: 5%.
Turning to `CCC(=O)CCc1cc(-c2ccc(Cl)cc2)n(-c2ccc(OC)cc2)n1` [Compound 180], the inhibition in vivo at 15 mg/kg was determined as 32%.
Same read-out and setting: for `COc1ccc(-n2nc(CCC(=O)N(O)C3CCCCC3)cc2-c2ccc(Cl)cc2)cc1` [Compound 82, 3-[5-(4-chlorophenyl)-1-(4-methoxyphenyl)-3-pyrazolyl]-N-cyclohexyl-N-hydroxypropanamide] the value was 54%; for `CCOC(=O)C(=O)NCCc1cc(-c2ccc(Cl)cc2)n(-c2ccc(OC)cc2)n1` [Compound 160, Ethyl 2-[5-(4-chlorophenyl)-1-(4-methoxyphenyl)-3-pyrazolyl]-ethylamine-N-oxoacetate], 9%.
The same measure, in the same setting: for `COc1ccc(-n2nc(CCC(=O)O)c(Cl)c2-c2ccc(Cl)cc2)cc1` [Compound 182] the value was 71%; for `COc1ccc(-n2nc(CCC(=O)N(C)O)cc2-c2ccccc2)cc1` [Compound 114], 5%; for `COc1ccc(-n2nc(CCC(=O)Nc3nnn[nH]3)cc2-c2ccc(Cl)cc2)cc1` [Compound 90], 32%.
The same measure, in the same setting: the same measure for `COc1ccc(-n2nc(CCC(=O)NCC(=O)NO)cc2-c2ccc(Cl)cc2)cc1` [Compound 88]: 36%; for `COc1ccc(-n2nc(CCC(=O)O)c(Br)c2-c2ccc(Cl)cc2)cc1` [Compound 147, 3-[4-Bromo-5-(4-Chlorophenyl)-1-(4-methoxyphenyl)-3-pyrazolyl]-propionic acid]: 79%; for `COc1ccc(-n2nc(CCC(=O)N(O)C(C)C)cc2-c2ccc(Cl)cc2)cc1` [Compound 81, 3-[5-(4-chlorophenyl)-1-(4-methoxyphenyl)-3-pyrazolyl]-N-hydroxy-N-isopropylpropanamide]: 50%.
For the molecule `COc1ccc(-n2nc(CCC(=O)NO)c(Br)c2-c2ccc(Cl)cc2)cc1` [Compound 150], the inhibition in vivo at 15 mg/kg was found to be 70%.

Still in this assay, the particulars now being: po, 336 h; 25 mpk p.o., rat; read-out: % INH. p.o. (percentage inhibition of pad swelling).
On to `COc1ccc(-n2nc(CCCO)cc2-c2ccc(F)cc2)cc1` [Compound 30], for which the inhibition in vivo at 25 mg/kg was determined as 42%.
On the same count and under the same terms, the same measure for `COC(=O)c1ccc(/C=C/CCc2cc(-c3ccc(Cl)cc3)n(-c3ccc(OC)cc3)n2)cc1` [Compound 25, 3-[4-(4-Carbomethoxyphenyl)-3(E)-butenyl]-5-(4-chlorophenyl)-1-(4-methoxyphenyl) pyrazole]: 18%; for `COc1ccc(-n2nc(CCCOC(=O)CCc3cc(-c4ccc(Cl)cc4)n(-c4ccc(OC)cc4)n3)cc2-c2ccc(Cl)cc2)cc1` [Compound 16, 3-[5-(4-Chlorophenyl)-1-(4-methoxyphenyl)-3-pyrazolyl] propyl 3-[5-(4-Chlorophenyl)-1-(4-methoxyphenyl)-3-pyrazolyl] propionate]: 82%; for `COCCCc1cc(-c2ccc(Cl)cc2)n(-c2ccc(OC)cc2)n1` [Compound 24, 3-[5-(4-Chlorophenyl)-1-(4-methoxyphenyl)-3-pyrazolyl] propyl methyl ether]: 64%.
The same measure, in the same setting: the same measure for `OCCCc1cc(-c2ccc(Cl)cc2)n(-c2ccccc2C(F)(F)F)n1` [Compound 60]: 8%.
Still for that read-out and setting: the same measure for `OCCCc1cc(-c2ccc(Cl)cc2)n(-c2ccc(Br)cc2)n1` [Compound 35, 1-(4-bromophenyl)-5-(4-chlorophenyl)-3-(3-hydroxypropyl) pyrazole]: 65%.
`COc1ccc(-n2nc(CCC(=O)Nc3ccc(O)cc3)cc2-c2ccc(Cl)cc2)cc1` [Compound 34]: the inhibition in vivo at 25 mg/kg came to 21%.

The assay is the same for the next values; noted with them: po, 336 h; 30 mpk p.o., rat; read-out: % INH. p.o. (percentage inhibition of pad swelling).
`CCCCCOc1ccc(-n2nc(CCCO)cc2-c2ccc(Cl)cc2)cc1` [Compound 51]: the inhibition in vivo at 30 mg/kg was found to be 6.4%.
On the same count and under the same terms, the same measure for `CCN(CC)OC(=O)CCc1cc(-c2ccc(Cl)cc2)n(-c2ccc(OC)cc2)n1` [Compound 102]: 87%.

Staying with this assay, now noted: po, 336 h; 40 mpk p.o., rat; read-out: % INH. p.o. (percentage inhibition of pad swelling).
On to `COc1ccc(-n2nc(CC/C=C\CCCC(N)=O)cc2-c2ccc(Cl)cc2)cc1` [Compound 38], for which the inhibition in vivo at 40 mg/kg worked out at 40%.
The same measure, in the same setting: the same measure for `COc1ccc(-n2nc(CCC(C)=O)cc2-c2ccc(Cl)cc2)cc1` [Compound 23, 5-(4-Chlorophenyl)-1-(4-methoxyphenyl)-3-(3-oxobutyl)pyrazole]: 53%; for `COc1ccc(-n2nc(CCC(C)O)cc2-c2ccc(Cl)cc2)cc1` (stereo not shown) [Compound 20, 5-(4-Chlorophenyl)-3-(3-hydroxybutyl)-1-(4-methoxyphenyl) pyrazole]: 19%; for `O=[N+]([O-])c1ccc(-n2nc(CCCO)cc2-c2ccc(Cl)cc2)cc1` [Compound 48]: 40%.
The same measure, in the same setting: the same measure for `COc1ccc(-n2nc(CCC(=O)NC3=NCCS3)cc2-c2ccc(Cl)cc2)cc1` [Compound 85]: 40%.

Still in this assay, the particulars now being: po, 336 h; 50 mpk p.o., rat; read-out: % INH. p.o. (percentage inhibition of pad swelling).
On to `OCCCc1cc(-c2ccc(Cl)cc2)n(-c2ccc(F)cc2)n1` [Compound 62], for which the inhibition in vivo at 50 mg/kg came out at 31%.
On the same count and under the same terms, for `COc1ccc(-n2nc(CCCO)cc2-c2ccccc2)cc1` [Compound 10] the value was 30%; for `COc1ccccc1-n1nc(CCCO)cc1-c1ccc(Cl)cc1` [Compound 22], 33%.
Same read-out and setting: for `OCCCc1cc(-c2ccccc2)n(-c2ccc(Cl)cc2)n1` [Compound 21] the value was 52%; for `OCCCc1cc(-c2ccc(Cl)cc2)n(-c2ccc(Cl)cc2)n1` [Compound 4], 68%.
